Data: ChEMBL document CHEMBL1255531, “Utilization of a nitrogen-sulfur nonbonding interaction in the design of new 2-aminothiazol-5-yl-pyrimidines as p38α MAP kinase inhibitors” (Bioorg Med Chem Lett, 2010)
In brackets after ≈: the same amount, converted by molar mass. Activity calls are given as the source filed them. No cut-off for these calls is given here.

Assays:
[1] = molecular target: Phosphorylase b kinase gamma catalytic chain, skeletal muscle/heart isoform (Homo sapiens) (UniProt Q16816); experiment: Inhibition of PHKG1 at 10 uM relative to control
[2] = molecular target: Serine/threonine-protein kinase pim-1 (Homo sapiens) (UniProt P11309); experiment: Inhibition of PIM1 at 10 uM relative to control
[3] = molecular target: Aurora kinase A (Homo sapiens) (UniProt O14965); experiment: Inhibition of aurora A at 10 uM relative to control
[4] = molecular target: Serine/threonine-protein kinase Nek2 (Homo sapiens) (UniProt P51955); experiment: Inhibition of NEK2 at 10 uM relative to control
[5] = molecular target: Epidermal growth factor receptor (Homo sapiens) (UniProt P00533); experiment: Inhibition of EGFR at 10 uM relative to control
[6] = molecular target: Calcium/calmodulin-dependent protein kinase type 1 (Homo sapiens) (UniProt Q14012); experiment: Inhibition of CAMK1A at 10 uM relative to control
[7] = Aqueous solubility of the compound at pH 6.5; assay type: physicochemical; conditions: buffer
[8] = molecular target: Serine/threonine-protein kinase PAK 5 (Homo sapiens) (UniProt Q9P286); experiment: Inhibition of PAK5 at 10 uM relative to control
[9] = molecular target: Tyrosine-protein kinase CSK (Homo sapiens) (UniProt P41240); experiment: Inhibition of CSK at 10 uM relative to control
[10] = molecular target: Serine/threonine-protein kinase 16 (Homo sapiens) (UniProt O75716); experiment: Inhibition of STK16 at 10 uM relative to control
[11] = molecular target: Casein kinase I isoform epsilon (Homo sapiens) (UniProt P49674); experiment: Inhibition of CK1E at 10 uM relative to control
[12] = molecular target: Serine/threonine-protein kinase PAK 1 (Homo sapiens) (UniProt Q13153); experiment: Inhibition of PAK1 at 10 uM relative to control
[13] = molecular target: Myosin light chain kinase 2, skeletal/cardiac muscle (Homo sapiens) (UniProt Q9H1R3); experiment: Inhibition of skeletal muscle MLCK at 10 uM relative to control; conditions: Muscle tissue
[14] = molecular target: Mitogen-activated protein kinase 10 (Homo sapiens) (UniProt P53779); experiment: Inhibition of JNK3 at 10 uM relative to control
[15] = molecular target: Receptor-type tyrosine-protein kinase FLT3 (Homo sapiens) (UniProt P36888); experiment: Inhibition of FLT3 at 10 uM relative to control
[16] = molecular target: Serine/threonine-protein kinase PAK 4 (Homo sapiens) (UniProt O96013); experiment: Inhibition of PAK4 at 10 uM relative to control
[17] = molecular target: Ephrin type-A receptor 2 (Homo sapiens) (UniProt P29317); experiment: Inhibition of EPHA2 at 10 uM relative to control
[18] = molecular target: High affinity nerve growth factor receptor (Homo sapiens) (UniProt P04629); experiment: Inhibition of TRKA at 10 uM relative to control
[19] = molecular target: Tyrosine-protein kinase ABL1 (Homo sapiens) (UniProt P00519); experiment: Inhibition of ABL1 at 10 uM relative to control
[20] = molecular target: Proto-oncogene tyrosine-protein kinase Src (Homo sapiens) (UniProt P12931); experiment: Inhibition of SRC at 10 uM relative to control
[21] = molecular target: Insulin receptor (Homo sapiens) (UniProt P06213); experiment: Inhibition of INSR at 10 uM relative to control
[22] = molecular target: Ephrin type-B receptor 4 (Homo sapiens) (UniProt P54760); experiment: Inhibition of EPHB4 at 10 uM relative to control
[23] = molecular target: Tyrosine-protein kinase SYK (Homo sapiens) (UniProt P43405); experiment: Inhibition of SYK at 10 uM relative to control
[24] = molecular target: Mitogen-activated protein kinase 8 (Homo sapiens) (UniProt P45983); experiment: Inhibition of JNK1 at 10 uM relative to control
[25] = molecular target: Death-associated protein kinase 2 (Homo sapiens) (UniProt Q9UIK4); experiment: Inhibition of DAPK2 at 10 uM relative to control
[26] = molecular target: 5'-AMP-activated protein kinase catalytic subunit alpha-1 (Homo sapiens) (UniProt Q13131); experiment: Inhibition of AMPKA1 at 10 uM relative to control
[27] = molecular target: Angiopoietin-1 receptor (Homo sapiens) (UniProt Q02763); experiment: Inhibition of TIE2 at 10 uM relative to control
[28] = molecular target: Insulin-like growth factor 1 receptor (Homo sapiens) (UniProt P08069); experiment: Inhibition of IGF1R at 10 uM relative to control
[29] = molecular target: Cyclin-G-associated kinase (Homo sapiens) (UniProt O14976); experiment: Inhibition of GAK at 10 uM relative to control
[30] = molecular target: Vascular endothelial growth factor receptor 2 (Homo sapiens) (UniProt P35968); experiment: Inhibition of KDR at 10 uM relative to control
[31] = molecular target: Serine/threonine-protein kinase MARK2 (Homo sapiens) (UniProt Q7KZI7); experiment: Inhibition of MARK2 at 10 uM relative to control
[32] = molecular target: Platelet-derived growth factor receptor beta (Homo sapiens) (UniProt P09619); experiment: Inhibition of PDGRB at 10 uM relative to control
[33] = molecular target: Fibroblast growth factor receptor 1 (Homo sapiens) (UniProt P11362); experiment: Inhibition of FGF1R at 10 uM relative to control
[34] = molecular target: MAP kinase-interacting serine/threonine-protein kinase 2 (Homo sapiens) (UniProt Q9HBH9); experiment: Inhibition of MNK2 at 10 uM relative to control
[35] = Selectivity ratio of IC50 for p38alpha to IC50 for LIMK2
[36] = molecular target: Mast/stem cell growth factor receptor Kit (Homo sapiens) (UniProt P10721); experiment: Inhibition of KIT at 10 uM relative to control
[37] = molecular target: Dual specificity protein kinase CLK1 (Homo sapiens) (UniProt P49759); experiment: Inhibition of CLK1 at 10 uM relative to control
[38] = molecular target: Aurora kinase C (Homo sapiens) (UniProt Q9UQB9); experiment: Inhibition of aurora C at 10 uM relative to control
[39] = molecular target: Cyclin-dependent kinase 2 (Homo sapiens) (UniProt P24941); experiment: Inhibition of CDK2 at 10 uM relative to control
[40] = molecular target: Mitogen-activated protein kinase kinase kinase 4 (Homo sapiens) (UniProt Q9Y6R4); experiment: Inhibition of MAP3K4 at 10 uM relative to control
[41] = Selectivity ratio of IC50 for p38alpha to IC50 for LIMK1
[42] = molecular target: Calcium/calmodulin-dependent protein kinase type 1D (Homo sapiens) (UniProt Q8IU85); experiment: Inhibition of CAMK1D at 10 uM relative to control
PBMC = experiment: Antiinflammatory activity in human PBMC assessed as inhibition of LPS-induced TNFalpha production after 6 hrs by ELISA; assay type: functional, cell-based
[43] = molecular target: Mitogen-activated protein kinase 14 (Homo sapiens, UniProt Q16539); experiment: Inhibition of bacterially expressed activated p38alpha pre-incubated 10 mins measured after 45 mins by scintillation counting
LIM domain kinase 1 = LIM domain kinase 1 (Homo sapiens, UniProt P53667); experiment: Inhibition of LIMK1
LIM domain kinase 2 = LIM domain kinase 2 (Homo sapiens, UniProt P53671); experiment: Inhibition of LIMK2
Chain of LIM domain kinase 2 (P53671 whole entry, the tested form may be a part): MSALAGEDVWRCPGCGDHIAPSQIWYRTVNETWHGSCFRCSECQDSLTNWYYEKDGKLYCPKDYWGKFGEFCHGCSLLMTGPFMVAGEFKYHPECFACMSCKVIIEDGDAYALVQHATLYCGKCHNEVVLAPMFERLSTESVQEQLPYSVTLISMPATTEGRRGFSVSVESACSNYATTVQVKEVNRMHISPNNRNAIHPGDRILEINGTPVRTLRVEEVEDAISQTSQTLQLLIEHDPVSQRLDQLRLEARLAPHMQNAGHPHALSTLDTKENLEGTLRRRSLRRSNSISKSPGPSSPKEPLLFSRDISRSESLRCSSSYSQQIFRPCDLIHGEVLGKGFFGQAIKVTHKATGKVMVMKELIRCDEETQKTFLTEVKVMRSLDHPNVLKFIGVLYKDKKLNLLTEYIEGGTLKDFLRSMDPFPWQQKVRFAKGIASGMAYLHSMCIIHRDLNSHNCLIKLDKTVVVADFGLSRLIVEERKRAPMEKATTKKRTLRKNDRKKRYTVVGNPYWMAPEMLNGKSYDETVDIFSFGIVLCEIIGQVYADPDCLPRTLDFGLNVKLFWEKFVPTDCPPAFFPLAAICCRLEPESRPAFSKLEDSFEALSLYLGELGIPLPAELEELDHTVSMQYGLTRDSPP

Chain of Mitogen-activated protein kinase 14 (Q16539 whole entry, the tested form may be a part): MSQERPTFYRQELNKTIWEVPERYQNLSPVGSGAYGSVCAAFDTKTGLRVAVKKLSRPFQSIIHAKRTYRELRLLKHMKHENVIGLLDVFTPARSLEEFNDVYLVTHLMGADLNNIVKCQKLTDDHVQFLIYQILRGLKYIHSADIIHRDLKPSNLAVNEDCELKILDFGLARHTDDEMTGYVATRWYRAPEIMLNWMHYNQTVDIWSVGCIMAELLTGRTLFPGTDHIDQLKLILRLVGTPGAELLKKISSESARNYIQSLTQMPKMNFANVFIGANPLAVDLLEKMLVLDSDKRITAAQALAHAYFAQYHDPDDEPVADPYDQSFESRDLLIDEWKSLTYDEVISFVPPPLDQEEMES
Chain of LIM domain kinase 1 (P53667 whole entry, the tested form may be a part): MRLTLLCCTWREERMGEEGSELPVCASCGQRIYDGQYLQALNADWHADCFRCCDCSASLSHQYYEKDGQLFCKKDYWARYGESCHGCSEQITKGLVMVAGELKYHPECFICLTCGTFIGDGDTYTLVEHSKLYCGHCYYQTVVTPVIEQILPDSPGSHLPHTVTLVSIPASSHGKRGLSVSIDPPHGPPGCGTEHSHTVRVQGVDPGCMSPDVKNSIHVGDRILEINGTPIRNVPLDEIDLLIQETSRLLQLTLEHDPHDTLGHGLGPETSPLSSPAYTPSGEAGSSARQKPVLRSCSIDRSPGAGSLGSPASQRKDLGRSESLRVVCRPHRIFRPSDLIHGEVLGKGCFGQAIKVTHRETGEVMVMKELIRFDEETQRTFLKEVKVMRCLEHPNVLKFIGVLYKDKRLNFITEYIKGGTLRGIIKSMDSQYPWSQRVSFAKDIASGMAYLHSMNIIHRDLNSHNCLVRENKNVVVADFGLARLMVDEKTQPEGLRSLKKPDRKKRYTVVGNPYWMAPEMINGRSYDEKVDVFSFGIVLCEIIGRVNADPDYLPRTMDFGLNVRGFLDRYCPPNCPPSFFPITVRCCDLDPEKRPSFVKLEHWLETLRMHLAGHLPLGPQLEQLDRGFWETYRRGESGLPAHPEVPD
Chain of Serine/threonine-protein kinase Nek2 (Homo sapiens) (P51955 whole entry): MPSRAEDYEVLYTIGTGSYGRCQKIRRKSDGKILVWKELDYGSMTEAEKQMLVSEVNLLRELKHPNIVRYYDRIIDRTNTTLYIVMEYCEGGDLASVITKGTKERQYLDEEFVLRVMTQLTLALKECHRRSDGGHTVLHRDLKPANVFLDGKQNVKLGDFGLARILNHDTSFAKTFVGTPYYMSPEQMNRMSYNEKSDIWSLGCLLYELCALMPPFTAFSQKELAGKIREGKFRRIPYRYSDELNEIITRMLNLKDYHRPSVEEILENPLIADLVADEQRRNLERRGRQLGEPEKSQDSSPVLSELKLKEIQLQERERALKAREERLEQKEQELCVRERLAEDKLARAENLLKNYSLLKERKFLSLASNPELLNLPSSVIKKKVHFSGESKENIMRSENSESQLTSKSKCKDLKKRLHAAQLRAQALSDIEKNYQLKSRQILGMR
Chain of Fibroblast growth factor receptor 1 (Homo sapiens) (P11362 22-822 limits assumed): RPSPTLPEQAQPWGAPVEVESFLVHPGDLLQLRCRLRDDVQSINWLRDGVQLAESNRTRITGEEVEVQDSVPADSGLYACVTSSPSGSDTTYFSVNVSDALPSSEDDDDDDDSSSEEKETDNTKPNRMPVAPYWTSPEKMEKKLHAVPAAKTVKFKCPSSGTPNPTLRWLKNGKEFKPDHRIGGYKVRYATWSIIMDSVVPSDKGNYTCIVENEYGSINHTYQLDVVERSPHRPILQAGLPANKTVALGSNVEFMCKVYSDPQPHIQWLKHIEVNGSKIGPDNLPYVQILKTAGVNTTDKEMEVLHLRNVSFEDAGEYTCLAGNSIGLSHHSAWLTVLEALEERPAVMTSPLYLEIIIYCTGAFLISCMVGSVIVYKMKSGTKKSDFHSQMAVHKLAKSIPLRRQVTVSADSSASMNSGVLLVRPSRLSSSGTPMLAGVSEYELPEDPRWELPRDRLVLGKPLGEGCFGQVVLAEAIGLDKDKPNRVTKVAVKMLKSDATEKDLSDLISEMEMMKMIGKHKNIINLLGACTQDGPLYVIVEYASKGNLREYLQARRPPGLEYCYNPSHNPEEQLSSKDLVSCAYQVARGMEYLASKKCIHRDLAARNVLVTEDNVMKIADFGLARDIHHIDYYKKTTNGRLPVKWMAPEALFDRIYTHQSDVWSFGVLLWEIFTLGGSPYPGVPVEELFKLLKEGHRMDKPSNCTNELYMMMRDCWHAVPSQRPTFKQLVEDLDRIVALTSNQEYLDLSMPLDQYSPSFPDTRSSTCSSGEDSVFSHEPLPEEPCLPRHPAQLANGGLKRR
Chain of Aurora kinase C (Homo sapiens) (Q9UQB9 whole entry): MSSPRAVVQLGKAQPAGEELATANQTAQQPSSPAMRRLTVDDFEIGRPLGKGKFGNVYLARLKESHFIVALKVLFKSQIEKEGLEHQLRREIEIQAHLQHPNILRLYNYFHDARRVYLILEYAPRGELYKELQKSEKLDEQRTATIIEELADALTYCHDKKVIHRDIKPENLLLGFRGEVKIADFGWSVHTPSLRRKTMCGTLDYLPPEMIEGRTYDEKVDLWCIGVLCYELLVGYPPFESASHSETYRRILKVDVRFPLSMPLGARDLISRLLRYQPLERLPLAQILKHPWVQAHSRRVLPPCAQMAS
Chain of Ephrin type-B receptor 4 (Homo sapiens) (P54760 whole entry): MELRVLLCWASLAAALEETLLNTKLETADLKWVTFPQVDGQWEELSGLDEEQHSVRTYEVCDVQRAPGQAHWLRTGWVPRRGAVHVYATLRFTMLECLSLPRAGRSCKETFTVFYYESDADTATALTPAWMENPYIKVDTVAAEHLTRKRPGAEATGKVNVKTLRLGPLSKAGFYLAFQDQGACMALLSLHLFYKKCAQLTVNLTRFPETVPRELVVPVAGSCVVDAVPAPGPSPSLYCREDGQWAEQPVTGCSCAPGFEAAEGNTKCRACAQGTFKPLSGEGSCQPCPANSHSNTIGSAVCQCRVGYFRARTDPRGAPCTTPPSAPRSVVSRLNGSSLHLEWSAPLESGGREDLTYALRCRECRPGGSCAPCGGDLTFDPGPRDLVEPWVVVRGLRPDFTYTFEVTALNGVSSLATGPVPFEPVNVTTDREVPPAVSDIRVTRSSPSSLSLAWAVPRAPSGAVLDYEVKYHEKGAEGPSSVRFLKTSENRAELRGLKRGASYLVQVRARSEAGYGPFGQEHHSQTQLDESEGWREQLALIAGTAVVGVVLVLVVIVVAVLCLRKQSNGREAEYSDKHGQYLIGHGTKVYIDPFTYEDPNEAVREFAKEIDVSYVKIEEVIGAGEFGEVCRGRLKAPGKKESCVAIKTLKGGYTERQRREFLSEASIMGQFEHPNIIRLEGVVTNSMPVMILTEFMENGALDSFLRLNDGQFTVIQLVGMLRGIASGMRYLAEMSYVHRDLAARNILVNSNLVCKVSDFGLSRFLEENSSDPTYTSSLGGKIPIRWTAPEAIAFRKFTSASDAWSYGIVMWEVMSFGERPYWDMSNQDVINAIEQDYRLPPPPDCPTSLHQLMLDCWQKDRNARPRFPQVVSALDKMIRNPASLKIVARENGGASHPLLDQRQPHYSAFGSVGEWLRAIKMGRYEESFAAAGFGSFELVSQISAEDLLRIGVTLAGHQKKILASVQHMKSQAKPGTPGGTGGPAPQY
Chain of Calcium/calmodulin-dependent protein kinase type 1 (Homo sapiens) (Q14012 whole entry, looked up): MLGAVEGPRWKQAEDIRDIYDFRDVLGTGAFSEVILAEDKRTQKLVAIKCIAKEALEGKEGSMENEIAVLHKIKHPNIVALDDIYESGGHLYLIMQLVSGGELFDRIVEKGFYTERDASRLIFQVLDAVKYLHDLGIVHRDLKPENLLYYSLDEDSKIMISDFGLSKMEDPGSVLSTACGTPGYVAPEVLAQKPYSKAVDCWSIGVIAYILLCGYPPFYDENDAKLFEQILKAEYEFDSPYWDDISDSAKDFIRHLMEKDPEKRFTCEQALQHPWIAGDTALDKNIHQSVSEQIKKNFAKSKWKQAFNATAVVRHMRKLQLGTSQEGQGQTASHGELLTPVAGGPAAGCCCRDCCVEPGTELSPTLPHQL
Chain of Serine/threonine-protein kinase pim-1 (Homo sapiens) (P11309 whole entry, looked up): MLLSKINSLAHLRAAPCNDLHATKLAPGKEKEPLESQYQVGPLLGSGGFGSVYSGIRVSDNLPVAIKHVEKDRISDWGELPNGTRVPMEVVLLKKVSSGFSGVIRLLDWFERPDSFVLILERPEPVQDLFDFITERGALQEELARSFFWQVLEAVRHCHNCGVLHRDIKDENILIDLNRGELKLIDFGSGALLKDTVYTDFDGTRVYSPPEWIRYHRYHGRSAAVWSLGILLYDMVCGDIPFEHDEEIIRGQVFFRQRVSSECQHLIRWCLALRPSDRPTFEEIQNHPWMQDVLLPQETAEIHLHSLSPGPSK

Compound: CCNC(=O)NCc1ccccc1-c1cc(-c2cnc(NC(C)C)s2)nc(NCCN(C)C)n1
- inhibition [1]: inactive
- inhibition [2]: inactive
- inhibition [3]: inactive
- inhibition [4]: inactive
- inhibition [5]: inactive
- inhibition [6]: inactive
- solubility [7]: 5940 ng/mL (≈ 12.3 µM)
- inhibition [8]: inactive
- inhibition [9]: inactive
- inhibition [10]: inactive
- inhibition [11]: inactive
- inhibition [12]: inactive
- inhibition [13]: inactive
- inhibition [14]: 0.2%
- inhibition [15]: inactive
- inhibition [16]: inactive
- inhibition [17]: inactive
- inhibition [18]: inactive
- inhibition [19]: inactive
- inhibition [20]: inactive
- inhibition [21]: inactive
- inhibition [22]: inactive
- inhibition [23]: inactive
- inhibition [24]: 24.9%
- inhibition [25]: inactive
- inhibition [26]: inactive
- inhibition [27]: inactive
- inhibition [28]: inactive
- inhibition [29]: inactive
- inhibition [30]: inactive
- inhibition [31]: inactive
- inhibition [32]: 11.3%
- inhibition [33]: inactive
- inhibition [34]: inactive
- Selectivity ratio [35]: > 10000
- inhibition [36]: 14.5%
- inhibition [37]: inactive
- inhibition [38]: inactive
- inhibition [39]: inactive
- inhibition [40]: inactive
- Selectivity ratio [41]: > 10000
- inhibition [42]: inactive
- IC50 (PBMC): 0.003 µM

Compound: CCCNc1ncc(-c2cc(-c3ccc(F)cc3)nc(-c3ccccn3)n2)s1
- IC50 [43]: 0.052 µM

Compound: CCCNc1ncc(-c2cc(-c3ccccc3F)nc(C3CC3)n2)s1
- IC50 [43]: > 1 µM

Compound: CNC(=O)NCc1ccccc1-c1cc(-c2cnc(NC(C)C)s2)nc(NCCN(C)C)n1
- IC50 [43]: 0.002 µM
- IC50 (PBMC): 0.012 µM

Compound: CC(C)Nc1ncc(-c2cc(-c3ccccc3Cl)nc(-c3ccccn3)n2)s1
- solubility [7]: < 5 ng/mL
- IC50 (LIM domain kinase 1): 0.252 µM
- IC50 [43]: 0.004 µM
- IC50 (LIM domain kinase 2): 0.362 µM
- IC50 (PBMC): 0.021 µM

Compound: Clc1ccccc1-c1cc(-c2cnc(NC3CC3)s2)nc(-c2ccccn2)n1
- IC50 [43]: 0.017 µM
- IC50 (PBMC): 0.022 µM

Compound: CCCNc1ncc(-c2ccnc(-c3ccccn3)n2)s1
- IC50 [43]: 0.314 µM

Compound: CCNc1ncc(-c2cc(-c3ccccc3Cl)nc(-c3ccccn3)n2)s1
- IC50 [43]: 0.017 µM
- IC50 (PBMC): 0.119 µM

Compound: CCCNc1ncc(-c2cc(-c3ccccc3F)nc(N)n2)s1
- IC50 [43]: 0.225 µM

Compound: CCCNc1ncc(-c2cc(-c3ccc(OCC)cc3Cl)nc(-c3ccccn3)n2)s1
- IC50 [43]: 3.94 µM

Compound: CCCNc1ncc(-c2ccnc(-c3ccccc3F)n2)s1
- IC50 [43]: > 30 µM

Compound: CCCNc1ncc(-c2cc(-c3ccccc3OCC)nc(-c3ccccn3)n2)s1
- IC50 [43]: 0.859 µM

Compound: CCCNc1ncc(-c2cc(-c3ccccc3Cl)nc(-c3ccccn3)n2)s1
- IC50 [43]: 0.022 µM
- IC50 (PBMC): 0.017 µM

Compound: CCCNc1ncc(-c2cc(-c3ccccc3F)nc(C)n2)s1
- IC50 [43]: 0.52 µM

Compound: CC(C)Nc1ncc(-c2cc(-c3ccccc3Cl)nc(NCCN(C)C)n2)s1
- solubility [7]: 994 ng/mL (≈ 2.38 µM)
- IC50 (LIM domain kinase 1): 0.00401 µM
- IC50 [43]: 0.005 µM
- IC50 (LIM domain kinase 2): 0.00305 µM
- IC50 (PBMC): 0.001 µM

Compound: Clc1ccccc1-c1cc(-c2cnc(NC3CCC3)s2)nc(-c2ccccn2)n1
- IC50 [43]: 0.016 µM
- IC50 (PBMC): 0.028 µM

Compound: CC(C)Nc1ncc(-c2cc(-c3ccccc3CNC(=O)NC3CC3)nc(NCCN(C)C)n2)s1
- IC50 [43]: 0.016 µM
- IC50 (PBMC): 0.011 µM

Compound: CC(C)Nc1ncc(-c2cc(-c3ccccc3Cl)nc(N(C)C)n2)s1
- IC50 [43]: 0.573 µM

Compound: CC(C)Nc1ncc(-c2cc(-c3ccccc3Cl)nc(NCC(O)CO)n2)s1 (stereo not given)
- IC50 [43]: 0.006 µM
- IC50 (PBMC): 0.011 µM

Compound: CCCNc1ncc(-c2cc(-c3ccccc3F)nc(-c3ccccn3)n2)s1
- IC50 [43]: 0.052 µM
- IC50 (PBMC): 0.062 µM

Compound: CCCNc1ncc(-c2cc(-c3ccc(F)cc3Cl)nc(-c3ccccn3)n2)s1
- IC50 [43]: 0.042 µM
- IC50 (PBMC): 0.017 µM

Compound: CC[C@@H](C)Nc1ncc(-c2cc(-c3ccccc3Cl)nc(-c3ccccn3)n2)s1
- solubility [7]: < 5 ng/mL
- IC50 [43]: 0.005 µM
- IC50 (PBMC): 0.013 µM

Compound: CC(C)Nc1ncc(-c2cc(-c3ccccc3Cl)nc(N)n2)s1
- IC50 [43]: 0.016 µM
- IC50 (PBMC): > 0.25 µM

Compound: CCCNc1ncc(-c2ccnc(C3CC3)n2)s1
- IC50 [43]: > 1 µM

Compound: Nc1ncc(-c2cc(-c3ccccc3Cl)nc(-c3ccccn3)n2)s1
- IC50 [43]: 0.114 µM

Compound: CC(C)Nc1ncc(-c2cc(-c3ccccc3Cl)nc(NCCO)n2)s1
- IC50 [43]: 0.008 µM
- IC50 (PBMC): 0.008 µM

Compound: CC[C@H](C)Nc1ncc(-c2cc(-c3ccccc3Cl)nc(-c3ccccn3)n2)s1
- solubility [7]: < 5 ng/mL
- IC50 [43]: 0.008 µM
- IC50 (PBMC): 0.031 µM

Compound: CC(C)Nc1ncc(-c2cc(-c3ccccc3Cl)ncn2)s1
- IC50 [43]: 0.046 µM
- IC50 (PBMC): 0.031 µM

Compound: CC(C)Nc1ncc(-c2ccnc(-c3ccccc3Cl)n2)s1
- IC50 [43]: 0.223 µM
